According to the supplement of paper PMC7600603:

What was measured:
[1] = tested on: DLD1 NRF2-GOF; assay: drug sensitivity score (DSS) viability (DSS score); higher = more sensitive; extreme values may be limits of the assay; conditions: 72 h; CellTiter-Glo viability
How it was run: (§1)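 Isogenic DLD1 colorectal cancer cells, either NRF2 wild-type or CRISPR gain-of-function, were grown in DMEM with 10% FBS. They were exposed in 384-well plates to library compounds at 5 concentrations spanning a 10,000-fold range. After 72 h, viability was read by CellTiter-Glo on a Pherastar FS reader and normalised to vehicle wells and 100-μM positive-control wells. EC50 and drug sensitivity score (a normalised area under the curve) came from four-parameter logistic dose-response fits.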

[2] = tested on: DLD1 NRF2-WT; assay: drug sensitivity score (DSS) cytotoxicity (DSS score); higher = more toxic; extreme values may be limits of the assay; conditions: 72 h; CellTox Green cytotoxicity
How it was run: as §1, with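 “cytotoxicity” for “viability”, “CellTox Green” for “CellTiter-Glo”, “TC50” for “EC50”, “from” for “from four-parameter”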

[3] = tested on: DLD1 NRF2-GOF; assay: as above; conditions: 72 h; CellTox Green cytotoxicity
How it was run: as §1, with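 “cytotoxicity” for “viability”, “CellTox Green” for “CellTiter-Glo”, “TC50” for “EC50”, “from” for “from four-parameter”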

[4] = tested on: DLD1 NRF2-GOF; conditions: 72 h; CellTiter-Glo viability
How it was run: as §1

[5] = tested on: DLD1 NRF2-WT; assay: TC50 cytotoxicity; higher = less toxic; conditions: 72 h; CellTox Green cytotoxicity
How it was run: as §1, with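 “cytotoxicity” for “viability”, “CellTox Green” for “CellTiter-Glo”, “TC50” for “EC50”, “from” for “from four-parameter”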

[6] = tested on: DLD1 NRF2-GOF; assay: TC50 cytotoxicity; higher = less toxic; conditions: 72 h; CellTox Green cytotoxicity
How it was run: as §1, with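 “cytotoxicity” for “viability”, “CellTox Green” for “CellTiter-Glo”, “TC50” for “EC50”, “from” for “from four-parameter”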

[7] = tested on: DLD1 NRF2-WT; assay: drug sensitivity score (DSS) viability (DSS score); higher = more sensitive; extreme values may be limits of the assay; conditions: 72 h; CellTiter-Glo viability
How it was run: as §1

[8] = tested on: DLD1 NRF2-WT; conditions: 72 h; CellTiter-Glo viability
How it was run: as §1

Compound | drug sensitivity score [1] | drug sensitivity score [2] | drug sensitivity score [3] | EC50 viability [4] | TC50 cytotoxicity [5] | TC50 cytotoxicity [6] | drug sensitivity score [7] | EC50 viability [8]
CC(C)Oc1ccc(C(=O)N[C@H](CNC(=O)CN(C)C)Cc2ccc(-c3cn4cccc([C@H](C)O)c4n3)cc2)cc1Cl | 10.7 | 0 | 0 | 0.182 µM | > 10 µM | > 10 µM | – | –
CN(C)CC#Cc1ccc(OCCCc2sc(N3CCc4cccc(C(=O)Nc5nc6ccccc6s5)c4C3)nc2C(=O)O)c(F)c1 | 0 | – | 3.3 | > 10 µM | – | 0.994 µM | – | –
NCC(=O)Nc1ccc(-n2nc(C(F)(F)F)cc2-c2ccc3c(ccc4ccccc43)c2)cc1 | 0 | 0 | 0 | > 25 µM | > 25 µM | > 25 µM | 0.8 | –
Nc1ncnc2c1c(COc1cccc(Cl)c1)nn2C1CCOCC1 | 0.6 | 0 | 0 | > 10 µM | > 10 µM | > 10 µM | – | –
O=C(NOC[C@H](O)CO)c1ccc(F)c(F)c1Nc1ccc(I)cc1F | 0.1 | 0 | 0 | > 1 µM | > 1 µM | > 1 µM | 2 | –
C[C@H](Nc1ncnc2[nH]cnc12)c1cc2ccc(F)cc2nc1-c1ccccn1 [AMG319] | 1.6 | 0 | 0 | > 1 µM | > 1 µM | > 1 µM | – | –
N[C@@H]1CCCN(c2c(/C=C3\SC(=O)NC3=O)cccc2-c2ccccc2)C1 [AZD1208] | 7.2 | 0 | 0 | > 10 µM | > 10 µM | > 10 µM | – | –
Oc1ncnc2[nH]ncc12 [Allopurinol] | 0 | 0 | 0 | > 10 µM | > 10 µM | > 10 µM | – | –
CC1(C)C(C(=O)Nc2ccc(S(=O)(=O)c3ccc(NC(=O)C4C(C)(C)C4(C)C)cc3)cc2)C1(C)C [BRD7116] | 7.6 | – | – | 0.0482 µM | – | – | 5.5 | –
Cc1noc2c1-c1ccccc1C(c1ccc(Cl)cc1)=N[C@H]2CC(N)=O [CPI-0610] | 3.6 | 0 | 0 | 0.362 µM | > 10 µM | > 10 µM | – | –
COc1cccc2c1C(=O)c1c(O)c3c(c(O)c1C2=O)C[C@@](O)(C(=O)CO)C[C@@H]3O[C@H]1C[C@H](N)[C@@H](O)[C@H](C)O1 [Epirubicin] | 8.6 | 0 | 0 | 0.153 µM | > 1 µM | > 1 µM | – | –
CO[C@H]1C[C@@H]2CC[C@@H](C)[C@@](O)(O2)C(=O)C(=O)N2CCCC[C@H]2C(=O)O[C@H]([C@H](C)C[C@@H]2CC[C@@H](OCCO)[C@H](OC)C2)CC(=O)[C@H](C)/C=C(\C)[C@@H](O)[C@@H](OC)C(=O)[C@H](C)C[C@H](C)/C=C/C=C/C=C/1C [Everolimus] | 2.5 | 0 | 0 | – | > 0.1 µM | > 0.1 µM | 4.7 | 0.0117 µM
CCc1nc(C(N)=O)c(Nc2ccc(N3CCC(N4CCN(C)CC4)CC3)c(OC)c2)nc1NC1CCOCC1 [Gilteritinib] | 1.4 | 0 | 0 | – | > 1 µM | > 1 µM | 2.9 | 0.251 µM
C#Cc1cccc(Nc2ncnc3cc4c(cc23)OCCOCCOCCO4)c1 [Icotinib] | 0.7 | 0 | 0 | – | > 10 µM | > 10 µM | 2.5 | 1.54 µM
CC(C)Cn1cnc2c(N)nc3ccccc3c21 [Imiquimod] | 3.9 | 0 | 0 | 0.0443 µM | > 2.5 µM | > 2.5 µM | – | –
Nc1cc(COc2c(Cl)cc(C[C@H](N)C(=O)O)cc2Cl)c2oc(-c3ccccc3)nc2c1 [JPH203] | 5.3 | 0 | 0 | – | > 5 µM | > 5 µM | 4.2 | > 5 µM
O=C(Nc1cnn2ccc(N3CCC[C@@H]3c3cc(F)ccc3F)nc12)N1CC[C@H](O)C1 [Larotrectinib] | 0.5 | 0 | 0 | > 1 µM | > 1 µM | > 1 µM | – | –
CC[C@H](C)C(=O)O[C@H]1C[C@@H](C)C=C2C=C[C@H](C)[C@H](CC[C@@H]3C[C@@H](O)CC(=O)O3)[C@H]21 [Lovastatin] | 5.2 | 0 | 0 | – | > 10 µM | > 10 µM | 0 | > 10 µM

Compound | drug sensitivity score [1] | drug sensitivity score [2] | drug sensitivity score [3] | EC50 viability [4] | TC50 cytotoxicity [5] | TC50 cytotoxicity [6] | drug sensitivity score [7] | EC50 viability [8]
CC1(C)CNc2cc(NC(=O)c3cccnc3NCc3ccncc3)ccc21 [Motesanib] | 3.1 | 0 | 0 | – | > 10 µM | > 10 µM | 4.5 | 0.565 µM
FC(F)(F)c1ccc(/C=C/c2nc(COc3ccc(CCCCn4ccnn4)cc3)co2)cc1 [Mubritinib] | 2.4 | 0 | 0 | – | > 1 µM | > 1 µM | 7.4 | 0.0334 µM
CC1(C)NC(=O)N(c2ccc([N+](=O)[O-])c(C(F)(F)F)c2)C1=O [Nilutamide] | 3.6 | 0 | 0 | – | > 10 µM | > 10 µM | 0 | > 10 µM
O=C(c1cc(Cc2n[nH]c(=O)c3ccccc23)ccc1F)N1CCN(C(=O)C2CC2)CC1 [Olaparib] | 2.6 | 0 | 0 | 1.4 µM | > 10 µM | > 10 µM | – | –
O=C(c1ccc(OCCN2CCCCC2)cc1)c1c(-c2ccc(O)cc2)sc2cc(O)ccc12 [Raloxifene] | 3.2 | – | – | 2.1 µM | – | – | – | –
CO[C@H]1C[C@@H]2CC[C@@H](C)[C@@](O)(O2)C(=O)C(=O)N2CCCC[C@H]2C(=O)O[C@H]([C@H](C)C[C@@H]2CC[C@@H](OP(C)(C)=O)[C@H](OC)C2)CC(=O)[C@H](C)/C=C(\C)[C@@H](O)[C@@H](OC)C(=O)[C@H](C)C[C@H](C)/C=C/C=C/C=C/1C [Ridaforolimus] | 0.8 | – | – | > 0.1 µM | – | – | 3.5 | –
C/C=C1\NC(=O)[C@H]2CSSCC/C=C/[C@H](CC(=O)N[C@H](C(C)C)C(=O)N2)OC(=O)[C@H](C(C)C)NC1=O [Romidepsin] | 23.4 | 9.6 | 2.9 | 0.006 µM | 0.105 µM | 0.121 µM | – | –
Cc1cc(F)c(C(=O)Nc2cccc(-c3nncn3C(C)C)n2)cc1-n1cnc(C2CC2)c1 [Selonsertib] | 3.7 | 0 | 0 | – | > 1 µM | > 1 µM | 4.9 | 0.0133 µM
CCC(C)(C)C(=O)O[C@H]1C[C@@H](C)C=C2C=C[C@H](C)[C@H](CC[C@@H]3C[C@@H](O)CC(=O)O3)[C@H]21 [Simvastatin] | 3.8 | – | – | 0.571 µM | – | – | 0 | –
COCCNCc1ccc(-c2cc3nccc(Oc4ccc(NC(=O)C5(C(=O)Nc6ccc(F)cc6)CC5)cc4F)c3s2)nc1 [Sitravatinib] | 5.5 | 0 | 0 | – | > 2.5 µM | > 2.5 µM | 4.6 | 0.138 µM
CC(C)(O)CC(=O)NCCn1ccc2ncnc(Nc3ccc(Oc4cccc(C(F)(F)F)c4)c(Cl)c3)c21 [TAK-285] | 3.7 | 0 | 0 | – | > 2.5 µM | > 2.5 µM | 5.4 | 0.0595 µM
Cn1nnc2c(C(N)=O)ncn2c1=O [Temozolomide] | 4.1 | 0 | 0 | 8.09 µM | > 100 µM | > 100 µM | – | –
O=C1CCC(N2C(=O)c3ccccc3C2=O)C(=O)N1 (stereo unspecified) [Thalidomide] | 0.7 | 0 | 0 | > 10 µM | > 10 µM | > 10 µM | – | –
Cn1cncc1[C@@](N)(c1ccc(Cl)cc1)c1ccc2c(c1)c(-c1cccc(Cl)c1)cc(=O)n2C [Tipifarnib] | 6.2 | 0 | 0 | – | > 10 µM | > 10 µM | 5.4 | 0.109 µM
CS(=O)(=O)c1ccc(-c2cnc(N)c(C(=O)Nc3ccccc3)n2)cc1 [VE-821] | 0.9 | 0 | 0 | – | > 10 µM | > 10 µM | 0.2 | > 10 µM
CCc1c(C(=O)C(N)=O)c2c(OCC(=O)O)cccc2n1Cc1ccccc1 [Varespladib] | 0.8 | 0 | 0 | – | > 10 µM | > 10 µM | 3.9 | 1.22 µM
CCC1=C[C@@H]2CN(C1)Cc1c([nH]c3ccccc13)[C@@](C(=O)OC)(c1cc3c(cc1OC)N(C)[C@H]1[C@@](O)(C(=O)OC)[C@H](OC(C)=O)[C@]4(CC)C=CCN5CC[C@]31[C@@H]54)C2 [Vinorelbine] | 32.2 | 8.1 | 7.5 | 0.0051 µM | – | > 10 µM | – | –
O=C(CCCCCCC(=O)Nc1ccccc1)NO [Vorinostat] | 3.5 | 2.2 | 0 | 3.55 µM | 2.24 µM | > 10 µM | – | –
